Where a name gives a salt, the structure may show the parent alone.
SMILES | melting point
Cc1c(NC(=O)c2ccc(OCC3CC3)cc2)ccc2[nH]c(CNCC(C)(C)O)cc12 [Example 44, 4-(cyclopropylmethoxy)-N-(2-{[(2-hydroxy-2-methylpropyl)amino]methyl}-4-methyl-1H-indol-5-yl)benzamide] | 186 °C
Cn1c(CN[C@H]2CC[C@H](O)CC2)cc2cc(NC(=O)c3ccc(OCC4CC4)cc3)ccc21 [Example 8, 4-(cyclopropylmethoxy)-N-(2-{[(trans-4-hydroxycyclohexyl)amino]methyl}-1-methyl-1H-indol-5-yl)benzamide] | 196 to 197 °C
Cn1c(CNCC(C)(C)O)cc2cc(NC(=O)c3ccc(OC[C@@H]4CCCO4)cc3)ccc21 [Example 19, N-(2-{[(2-hydroxy-2-methylpropyl)amino]methyl}-1-methyl-1H-indol-5-yl)-4-[(2S)-tetrahydrofuran-2-ylmethoxy]benzamide] | 188 to 190 °C
Cc1c(NC(=O)c2ccc(OC[C@@H]3CCCO3)cc2)ccc2c1cc(CN[C@H]1CC[C@](C)(O)CC1)n2C.Cl | 278 °C
Cc1c(CNCC2CCOCC2)[nH]c2ccc(NC(=O)c3ccc(OC[C@@H]4CCCO4)cc3)cc12 [Example 33, N-(3-methyl-2-{[(tetrahydro-2H-pyran-4-ylmethyl)amino]methyl}-1H-indol-5-yl)-4-[(2S)-tetrahydrofuran-2-ylmethoxy]benzamide] | 146 to 147 °C
CC(C)CNCc1cc2cc(NC(=O)c3ccc(OCC4CCOC4)cc3)ccc2n1C (stereo not drawn) [Example 21, N-(1-methyl-2-{[(2-methylpropyl)amino]methyl}-1H-indol-5-yl)-4-(tetrahydrofuran-3-ylmethoxy)benzamide] | 125 to 126 °C
Cc1c(NC(=O)c2ccc(OC[C@@H]3CCCO3)cc2F)ccc2c1cc(CNCC1CCOCC1)n2C [Example 62, N-(1,4-dimethyl-2-{[(tetrahydro-2H-pyran-4-ylmethyl)amino]methyl}-1H-indol-5-yl)-2-fluoro-4-[(2S)-tetrahydrofuran-2-ylmethoxy]benzamide] | 149 °C
Cn1c(CNCC(C)(C)C)cc2cc(NC(=O)c3ccc(C#CC4(O)CC4)cc3)ccc21 [Example 31, N-(2-{[(2,2-dimethylpropyl)amino]methyl}-1-methyl-1H-indol-5-yl)-4-[(1-hydroxycyclopropyl)ethynyl]benzamide] | 173 °C
Cn1c(CNCC2CCOC2)cc2cc(NC(=O)c3ccc(OCC4CCOC4)cc3)ccc21 (stereo not drawn) [Example 26, N-(1-methyl-2-{[(tetrahydrofuran-3-ylmethyl)amino]methyl}-1H-indol-5-yl)-4-(tetrahydrofuran-3-ylmethoxy)benzamide] | 131 to 133 °C
Cc1c(NC(=O)c2ccc(OCC3CC3)cc2)ccc2[nH]c(CNCC3CCOCC3)cc12 [Example 43, 4-(cyclopropylmethoxy)-N-(4-methyl-2-{[(tetrahydro-2H-pyran-4-ylmethyl)amino]methyl}-1H-indol-5-yl)benzamide] | 181 to 182 °C
Cc1c(NC(=O)c2ccc(C#CC3(O)CCC3)cc2)ccc2cc(CNCC(C)C)n(C)c12 [Example 92, 4-[(1-hydroxycyclobutyl)ethynyl]-N-(2-{[(2-methylpropyl)amino]methyl}-1,7-dimethyl-1H-indol-6-yl)benzamide] | 222 to 223 °C
Cc1c(NC(=O)c2ccc(OCC3CC3)cc2)ccc2[nH]c(CNC3CCCC3)cc12 [Example 45, N-{2-[(cyclopentylamino)methyl]-4-methyl-1H-indol-5-yl}-4-(cyclopropylmethoxy)benzamide] | 207 to 208 °C
Cn1c(CNCC2(C)COC2)cc2cc(NC(=O)c3ccc(OCC4CC4)cc3)ccc21 [Example 4, 4-(cyclopropylmethoxy)-N-[1-methyl-2-({[(3-methyloxetan-3-yl)methyl]amino}methyl)-1H-indol-5-yl]benzamide] | 154 to 155 °C
Cn1c(CNC[C@H]2CCCO2)cc2cc(NC(=O)c3ccc(OCC4CC4)cc3)ccc21 [Example 10, 4-(cyclopropylmethoxy)-N-[1-methyl-2-({[(2R)-tetrahydrofuran-2-ylmethyl]amino}methyl)-1H-indol-5-yl]benzamide] | 138 to 139 °C
Cc1c(NC(=O)c2ccc(OCC3CC3)cc2)ccc2cc(CN3CCC(C)(O)CC3)[nH]c12 [Example 68, 4-(cyclopropylmethoxy)-N-{2-[(4-hydroxy-4-methylpiperidin-1-yl)methyl]-7-methyl-1H-indol-6-yl}benzamide] | 195 °C
Cn1c(CNCC(C)(C)C)cc2cc(NC(=O)c3ccc(OC[C@@H]4CCCO4)cc3)ccc21 (as salt: acetate) [Example 15, N-(2-{[(2,2-dimethylpropyl)amino]methyl}-1-methyl-1H-indol-5-yl)-4-[(2S)-tetrahydrofuran-2-ylmethoxy]benzamide acetate] | 150 to 151 °C
Cc1c(CNCC(C)(C)O)n(C)c2ccc(NC(=O)c3ccc(OC[C@@H]4CCCO4)cc3)cc12 [Example 36, N-(2-{[(2-hydroxy-2-methylpropyl)amino]methyl}-1,3-dimethyl-1H-indol-5-yl)-4-[(2S)-tetrahydrofuran-2-ylmethoxy]benzamide] | 145 to 146 °C
Cn1c(CN[C@H]2CC[C@](C)(O)CC2)cc2cc(NC(=O)c3ccc(OC[C@@H]4CCCO4)cc3F)ccc21 [Example 28, 2-fluoro-N-(2-{[(trans-4-hydroxy-4-methylcyclohexyl)amino]methyl}-1-methyl-1H-indol-5-yl)-4-[(2S)-tetrahydrofuran-2-ylmethoxy]benzamide] | 138 to 139 °C
Cc1c(CNCC(C)(C)O)n(C)c2c(C)c(NC(=O)c3ccc(OC[C@@H]4CCCO4)cc3F)ccc12 [Example 111, 2-fluoro-N-(2-{[(2-hydroxy-2-methylpropyl)amino]methyl}-1,3,7-trimethyl-1H-indol-6-yl)-4-[(2S)-tetrahydrofuran-2-ylmethoxy]benzamide] | 131 to 132 °C

Other lines, results leading:

melting point | SMILES
201 °C | Cc1c(NC(=O)c2ccc(OC[C@@H]3CCCO3)cc2)ccc2cc(CNCC(C)(C)C)n(C)c12 [Example 81, N-(2-{[(2,2-dimethylpropyl)amino]methyl}-1,7-dimethyl-1H-indol-6-yl)-4-[(2S)-tetrahydrofuran-2-ylmethoxy]benzamide]
148 to 149 °C | Cc1c(NC(=O)c2ccc(OC[C@@H]3CCCO3)cc2F)ccc2cc(CNCC(C)(C)O)[nH]c12 [Example 76, 2-fluoro-N-(2-{[(2-hydroxy-2-methylpropyl)amino]methyl}-7-methyl-1H-indol-6-yl)-4-[(2S)-tetrahydrofuran-2-ylmethoxy]benzamide]
107 to 109 °C | Cc1c(CNC2CCCC2)[nH]c2c(C)c(NC(=O)c3ccc(OC[C@@H]4CCCO4)cc3)ccc12 [Example 100, N-{2-[(cyclopentylamino)methyl]-3,7-dimethyl-1H-indol-6-yl}-4-[(2S)-tetrahydrofuran-2-ylmethoxy]benzamide]
191 to 192 °C | Cc1c(NC(=O)c2ccc(OC[C@@H]3CCCO3)cc2)ccc2[nH]c(CNC3CCCC3)cc12 [Example 49, N-{2-[(cyclopentylamino)methyl]-4-methyl-1H-indol-5-yl}-4-[(2S)-tetrahydrofuran-2-ylmethoxy]benzamide]
145 to 146 °C | Cc1c(CNCC(C)C)n(C)c2ccc(NC(=O)c3ccc(OC[C@@H]4CCCO4)cc3)cc12 [Example 34, N-(2-{[(2-methylpropyl)amino]methyl}-1,3-dimethyl-1H-indol-5-yl)-4-[(2S)-tetrahydrofuran-2-ylmethoxy]benzamide]
159 to 163 °C | Cc1c(NC(=O)c2ccc(OC[C@@H]3CCCO3)cc2)ccc2cc(CNC3CCCC3)[nH]c12 [Example 73, N-{2-[(cyclopentylamino)methyl]-7-methyl-1H-indol-6-yl}-4-[(2S)-tetrahydrofuran-2-ylmethoxy]benzamide]
169 to 170 °C | Cc1c(NC(=O)c2ccc(OC[C@@H]3CCCO3)cc2)ccc2[nH]c(CNCC(C)(C)O)cc12 [Example 48, N-(2-{[(2-hydroxy-2-methylpropyl)amino]methyl}-4-methyl-1H-indol-5-yl)-4-[(2S)-tetrahydrofuran-2-ylmethoxy]benzamide]
162 °C | Cc1c(NC(=O)c2ccc(OC[C@@H]3CCCO3)cc2)ccc2c1cc(CNCC(C)C)n2C [Example 54, N-(1,4-dimethyl-2-{[(2-methylpropyl)amino]methyl}-1H-indol-5-yl)-4-[(2S)-tetrahydrofuran-2-ylmethoxy]benzamide]
132 to 133 °C | CC(C)CNCc1cc2cc(NC(=O)c3ccc(OC[C@@H]4CCCO4)cc3)ccc2n1C [Example 16, N-(1-methyl-2-{[(2-methylpropyl)amino]methyl}-1H-indol-5-yl)-4-[(2S)-tetrahydrofuran-2-ylmethoxy]benzamide]
166 to 167 °C | Cc1c(NC(=O)c2ccc(OC[C@@H]3CCCO3)cc2)ccc2[nH]c(CNCC3CCOCC3)cc12 [Example 47, N-(4-methyl-2-{[(tetrahydro-2H-pyran-4-ylmethyl)amino]methyl}-1H-indol-5-yl)-4-[(2S)-tetrahydrofuran-2-ylmethoxy]benzamide]
104 to 105 °C | Cc1c(NC(=O)c2ccc(OC[C@@H]3CCCO3)cc2F)ccc2c1cc(CNCC(C)C)n2C [Example 61, N-(1,4-dimethyl-2-{[(2-methylpropyl)amino]methyl}-1H-indol-5-yl)-2-fluoro-4-[(2S)-tetrahydrofuran-2-ylmethoxy]benzamide]
118 to 119 °C | Cc1c(CNCC(C)C)[nH]c2c(C)c(NC(=O)c3ccc(OC[C@@H]4CCCO4)cc3)ccc12 [Example 96, N-(2-{[(2-methylpropyl)amino]methyl}-3,7-dimethyl-1H-indol-6-yl)-4-[(2S)-tetrahydrofuran-2-ylmethoxy]benzamide]
176 to 177 °C | Cc1c(NC(=O)c2ccc(OCC3CC3)cc2)ccc2cc(CNCC(C)C)[nH]c12 [Example 64, 4-(cyclopropylmethoxy)-N-(7-methyl-2-{[(2-methylpropyl)amino]methyl}-1H-indol-6-yl)benzamide]
159 °C | Cc1c(NC(=O)c2ccc(OC[C@@H]3CCCO3)cc2)ccc2cc(CNCC(C)C)[nH]c12 [Example 72, N-(7-methyl-2-{[(2-methylpropyl)amino]methyl}-1H-indol-6-yl)-4-[(2S)-tetrahydrofuran-2-ylmethoxy]benzamide]
